From PubChem BioAssay AID1845216 (Molecular Pharmacology Branch, DTP, NCI, 2023)

System: SW 982 tumor spheroid viability
Assay: Anticancer human tumor SW 982 cell line growth inhibition;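 further: spheroids exposed to compound for 7 days before readout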
Settings: spheroids with HUVEC and MSC; for IC50: curve of first compound; for viability, T/C: stronger effect = lower value
How it was run: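 Single agents and combinations were tested on spheroids built from tumor cells plus HUVEC and hMSC, at half-log dilutions starting at or near clinical Cmax, else 10 microM; final DMSO 0.25% (v/v).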

[1] = second compound 30 pM, first compound 0.0316 µM
[2] = second compound 30 pM, first compound 0.1 µM
[3] = second compound 30 pM, first compound 0.316 µM
[4] = second compound 30 pM, first compound 1 µM
[5] = second compound 30 pM, first compound 3.16 µM
[6] = second compound 30 pM, first compound 10 µM
[7] = second compound 94.9 pM, first compound 0.0316 µM
[8] = second compound 94.9 pM, first compound 0.1 µM
[9] = second compound 94.9 pM, first compound 0.316 µM
[10] = second compound 94.9 pM, first compound 1 µM
[11] = second compound 94.9 pM, first compound 3.16 µM
[12] = second compound 94.9 pM, first compound 10 µM
[13] = second compound 0.0003 µM, first compound 0.0316 µM
[14] = second compound 0.0003 µM, first compound 0.1 µM
[15] = second compound 0.0003 µM, first compound 0.316 µM
[16] = second compound 0.0003 µM, first compound 1 µM
[17] = second compound 0.0003 µM, first compound 3.16 µM
[18] = second compound 0.0003 µM, first compound 10 µM
[19] = second compound 0.000949 µM, first compound 0.0316 µM
[20] = second compound 0.000949 µM, first compound 0.1 µM
[21] = second compound 0.000949 µM, first compound 0.316 µM
[22] = second compound 0.000949 µM, first compound 1 µM
[23] = second compound 0.000949 µM, first compound 3.16 µM
[24] = second compound 0.000949 µM, first compound 10 µM
[25] = second compound 0.003 µM, first compound 0.0316 µM
[26] = second compound 0.003 µM, first compound 0.1 µM
[27] = second compound 0.003 µM, first compound 0.316 µM
[28] = second compound 0.003 µM, first compound 1 µM
[29] = second compound 0.003 µM, first compound 3.16 µM
[30] = second compound 0.003 µM, first compound 10 µM

`CC(C)n1c(=O)n(C)c2cnc3cc(F)c(-c4ccc(OCCCN5CCCCC5)nc4)cc3c21` + COc1cc2c(cc1O)CCNC21CSC2c3c(OC(C)=O)c(C)c4c(c3C(COC1=O)N1C(O)C3Cc5cc(C)c(OC)c(O)c5C(C21)N3C)OCO4 gave an IC50 (second compound 30 pM) of 2.85 µM, an IC50 (second compound 94.9 pM) of 5.66 µM and an IC50 (second compound 0.0003 µM) of 2.45 µM. It also gave an IC50 (second compound 0.000949 µM) of less than 0.0316 µM, an IC50 (second compound 0.003 µM) of less than 0.0316 µM and a viability, T/C [1] of 83.8%. The viability, T/C [2] was 87.3%, the viability, T/C [3] was 83.9% and the viability, T/C [4] was 76.5%. The viability, T/C [5] was 47.3%, the viability, T/C [6] was 42.7% and the viability, T/C [7] was 80.6%. For the same molecule, the viability, T/C [8] was 80.5%, the viability, T/C [9] was 79.1% and the viability, T/C [10] was 75.1%. The viability, T/C [11] was 59.8%, the viability, T/C [12] was 40.4% and the viability, T/C [13] was 69.2%. It also gave a viability, T/C [14] of 65.5%, a viability, T/C [15] of 72.4% and a viability, T/C [16] of 64.5%. It also gave a viability, T/C [17] of 45.9%, a viability, T/C [18] of 37% and a viability, T/C [19] of 32.3%. It also gave a viability, T/C [20] of 30.3%, a viability, T/C [21] of 30.6% and a viability, T/C [22] of 43.6%. The viability, T/C [23] was 33.8%, the viability, T/C [24] was 21.6% and the viability, T/C [25] was 0.57%. For the same molecule, the viability, T/C [26] was 0.53%, the viability, T/C [27] was 0.47% and the viability, T/C [28] was 0.5%. For the same molecule, the viability, T/C [29] was 0.57% and the viability, T/C [30] was 0.64%.
Work on `COc1ccc([C@@H](O)c2cc(-c3ncnc4cc(N5CCOCC5)ccc34)c(F)cc2Cl)nn1` + COc1cc2c(cc1O)CCNC21CSC2c3c(OC(C)=O)c(C)c4c(c3C(COC1=O)N1C(O)C3Cc5cc(C)c(OC)c(O)c5C(C21)N3C)OCO4 yielded an IC50 (second compound 30 pM) of 7.19 µM, an IC50 (second compound 94.9 pM) of 4.6 µM and an IC50 (second compound 0.0003 µM) of 1.07 µM. The IC50 (second compound 0.000949 µM) was less than 0.0316 µM, the IC50 (second compound 0.003 µM) was less than 0.0316 µM and the viability, T/C [1] was 102%. It also gave a viability, T/C [2] of 102%, a viability, T/C [3] of 96.4% and a viability, T/C [4] of 88.8%. It also gave a viability, T/C [5] of 79.6%, a viability, T/C [6] of 38.8% and a viability, T/C [7] of 96.3%. It also gave a viability, T/C [8] of 97.3%, a viability, T/C [9] of 93.4% and a viability, T/C [10] of 70.8%. For the same molecule, the viability, T/C [11] was 65.9%, the viability, T/C [12] was 26.9% and the viability, T/C [13] was 84.1%. For the same molecule, the viability, T/C [14] was 83.1%, the viability, T/C [15] was 84% and the viability, T/C [16] was 48%. For the same molecule, the viability, T/C [17] was 23.6%, the viability, T/C [18] was 6.67% and the viability, T/C [19] was 36.2%. For the same molecule, the viability, T/C [20] was 32.6%, the viability, T/C [21] was 19.4% and the viability, T/C [22] was 4.23%. For the same molecule, the viability, T/C [23] was 0.86%, the viability, T/C [24] was 0.73% and the viability, T/C [25] was 0.88%. It also gave a viability, T/C [26] of 0.57%, a viability, T/C [27] of 0.41% and a viability, T/C [28] of 1.06%. For the same molecule, the viability, T/C [29] was 1.12% and the viability, T/C [30] was 1.01%.
With `O=C(c1cc(Cc2n[nH]c(=O)c3ccccc23)ccc1F)N1CCN(C(=O)C2CC2)CC1` + Cn1nnc2c(C(N)=O)ncn2c1=O the IC50 (second compound 1 µM) was 21.4 µM, the IC50 (second compound 3.16 µM) was 21.8 µM and the IC50 (second compound 10 µM) was 16.3 µM. For the same molecule, the IC50 (second compound 31.6 µM) was 4.55 µM, the IC50 (second compound 100 µM) was 0.863 µM and the viability, T/C (second compound 1 µM, first compound 0.0949 µM) was 93.2%. For the same molecule, the viability, T/C (second compound 1 µM, first compound 0.3 µM) was 95%, the viability, T/C (second compound 1 µM, first compound 0.949 µM) was 96.9% and the viability, T/C (second compound 1 µM, first compound 3 µM) was 78.3%. The viability, T/C (second compound 1 µM, first compound 9.49 µM) was 66.5%, the viability, T/C (second compound 1 µM, first compound 30 µM) was 43.5% and the viability, T/C (second compound 3.16 µM, first compound 0.0949 µM) was 93.7%. For the same molecule, the viability, T/C (second compound 3.16 µM, first compound 0.3 µM) was 93.8%, the viability, T/C (second compound 3.16 µM, first compound 0.949 µM) was 81.3% and the viability, T/C (second compound 3.16 µM, first compound 3 µM) was 73.6%. The viability, T/C (second compound 3.16 µM, first compound 9.49 µM) was 59.7%, the viability, T/C (second compound 3.16 µM, first compound 30 µM) was 46.4% and the viability, T/C (second compound 10 µM, first compound 0.0949 µM) was 75.7%. The viability, T/C (second compound 10 µM, first compound 0.3 µM) was 70.7%, the viability, T/C (second compound 10 µM, first compound 0.949 µM) was 68% and the viability, T/C (second compound 10 µM, first compound 3 µM) was 67.6%. For the same molecule, the viability, T/C (second compound 10 µM, first compound 9.49 µM) was 57.3%, the viability, T/C (second compound 10 µM, first compound 30 µM) was 41.7% and the viability, T/C (second compound 31.6 µM, first compound 0.0949 µM) was 66.6%. The viability, T/C (second compound 31.6 µM, first compound 0.3 µM) was 64.5%, the viability, T/C (second compound 31.6 µM, first compound 0.949 µM) was 54.3% and the viability, T/C (second compound 31.6 µM, first compound 3 µM) was 55.7%. For the same molecule, the viability, T/C (second compound 31.6 µM, first compound 9.49 µM) was 45.2%, the viability, T/C (second compound 31.6 µM, first compound 30 µM) was 36% and the viability, T/C (second compound 100 µM, first compound 0.0949 µM) was 49.6%. It also gave a viability, T/C (second compound 100 µM, first compound 0.3 µM) of 54%, a viability, T/C (second compound 100 µM, first compound 0.949 µM) of 50.7% and a viability, T/C (second compound 100 µM, first compound 3 µM) of 41.6%. It also gave a viability, T/C (second compound 100 µM, first compound 9.49 µM) of 38.3% and a viability, T/C (second compound 100 µM, first compound 30 µM) of 33.2%.
